# Source: patent US4619925A, “3-Propenyl cephalosporin derivatives” (priority 1985, dated 1986)
# Where two headings read alike, the source gives them in different places.
# Key:
# E. coli Juhl [1] = experiment: Protective dose for mice infected with lethal inoculum; format: in vivo; conditions: 50% survival after five days
# Source text: (§1) The data in Table 2 are results of protective doses (PD50) for mice infected with a lethal inoculum of bacteria. Two different bacteria were employed in the studies, one a Gram-positive organism (S. aureus Smith) and the other a Gram-negative organism (E. coli Juhl). The PD50 is that dose which, when administered to a group of injected mice, results in 50% survival after five days. Normally untreated infected mice die within three days following injection of the lethal inoculum.
# S. aureus Smith [2] = experiment: as above; format: in vivo; conditions: po, 50% survival after five days
# Source text: as §1
# S. aureus A9534 = experiment: MIC, agar dilution technique (Mueller-Hinton Agar); format: cell-based; conditions: Staphylococcus aureus, Gp-Ia, penicillin sensitive, read-out: Minimum Inhibitory Concentration
# Source text: (§2) Each of these groups of organisms is constituted of five individual strains of microorganism. The Gp-Ia organisms are Gram-positive staphylococci which are sensitive to penicillin. The Gp-Ib organisms are Gram-positive staphylococci which are resistant to penicillin and produce penicillinase. The Gn-Ia organisms are Gram-negative bacteria which are sensitive to ampicillin and cephalothin. The Gn-Ib organisms are Gram-negative bacteria which are resistant to ampicillin and cephalothin.
# E. coli Juhl [3] = experiment: MIC, agar dilution technique (Mueller-Hinton Agar); format: cell-based; conditions: Escherichia coli, read-out: Minimum Inhibitory Concentration
# Source text: as §2
# S. aureus Terajima = experiment: MIC, agar dilution technique (Mueller-Hinton Agar); format: cell-based; conditions: Staphylococcus aureus, Gp-Ia, penicillin sensitive, read-out: Minimum Inhibitory Concentration
# Source text: as §2
# S. aureus BX-1633-2 = experiment: MIC, agar dilution technique (Mueller-Hinton Agar); format: cell-based; conditions: Staphylococcus aureus, BX16332, read-out: Minimum Inhibitory Concentration
# Source text: as §2
# K. pneumoniae D11 = experiment: MIC, agar dilution technique (Mueller-Hinton Agar); format: cell-based; conditions: Klebsiella pneumoniae, D11, read-out: Minimum Inhibitory Concentration
# Source text: as §2
# K. pneumoniae A20346 = experiment: MIC, agar dilution technique (Mueller-Hinton Agar); format: cell-based; conditions: Klebsiella pneumoniae, A20346, read-out: Minimum Inhibitory Concentration
# Source text: as §2
# E. coli A9660 = experiment: MIC, agar dilution technique (Mueller-Hinton Agar); format: cell-based; conditions: Escherichia coli, A9660, read-out: Minimum Inhibitory Concentration
# Source text: as §2
# S. aureus A15092 = experiment: MIC, agar dilution technique (Mueller-Hinton Agar); format: cell-based; conditions: Staphylococcus aureus, Gp-Ib, penicillin resistant, read-out: Minimum Inhibitory Concentration
# Source text: as §2
# S. aureus A9602 = experiment: MIC, agar dilution technique (Mueller-Hinton Agar); format: cell-based; conditions: Staphylococcus aureus, A9602, read-out: Minimum Inhibitory Concentration
# Source text: as §2
# S. aureus Smith [4] = experiment: MIC, agar dilution technique (Mueller-Hinton Agar); format: cell-based; conditions: Staphylococcus aureus, Gp-Ia, penicillin sensitive, read-out: Minimum Inhibitory Concentration
# Source text: as §2
# E coli RGN-823 = experiment: MIC, agar dilution technique (Mueller-Hinton Agar); format: cell-based; conditions: Escherichia coli, RGN823, Gn-Ib, ampicillin and cephalothin resistant, read-out: Minimum Inhibitory Concentration
# Source text: as §2
# S. aureus A9497 = experiment: MIC, agar dilution technique (Mueller-Hinton Agar); format: cell-based; conditions: Staphylococcus aureus, Gp-Ia, penicillin sensitive, read-out: Minimum Inhibitory Concentration
# Source text: as §2
# S. aureus No. 193 = experiment: MIC, agar dilution technique (Mueller-Hinton Agar); format: cell-based; conditions: Staphylococcus aureus, Gp-Ib, penicillin resistant, read-out: Minimum Inhibitory Concentration
# Source text: as §2
# E. coli A20341-1 = experiment: MIC, agar dilution technique (Mueller-Hinton Agar); format: cell-based; conditions: Escherichia coli, A203411, read-out: Minimum Inhibitory Concentration
# Source text: as §2
# S. aureus Russell = experiment: MIC, agar dilution technique (Mueller-Hinton Agar); format: cell-based; conditions: Staphylococcus aureus, read-out: Minimum Inhibitory Concentration
# Source text: as §2
# E. coli A15148 = experiment: MIC, agar dilution technique (Mueller-Hinton Agar); format: cell-based; conditions: Escherichia coli, A15148, read-out: Minimum Inhibitory Concentration
# Source text: as §2
# Mouse urinary recovery = format: in vivo, mice; conditions: mouse, urine, po, 20 mg/kg; for dose excreted at 24 h: p.o.
# N. gonorrheae A20155 = experiment: In vitro activity against fastidious bacteria; format: cell-based
# Source text: (§3) Table 5 contains comparative data for in vitro antibacterial activity against fastidious bacteria.
# S. pneumoniae A9585 = experiment: In vitro activity against fastidious bacteria; format: cell-based; conditions: Streptococcus pneumoniae, A9585
# Source text: as §3
# H. influenzae A20177 = experiment: In vitro activity against fastidious bacteria; format: cell-based; conditions: Haemophilus influenzae, A20177
# Source text: as §3
# N. meningitidis A21487 = experiment: In vitro activity against fastidious bacteria; format: cell-based; conditions: Neisseria meningitidis, A21487
# Source text: as §3
# H. influenzae A21523 = experiment: In vitro activity against fastidious bacteria; format: cell-based; conditions: Haemophilus influenzae, A21523
# Source text: as §3
# H. influenzae A22482 = experiment: In vitro activity against fastidious bacteria; format: cell-based; conditions: Haemophilus influenzae, A22482
# Source text: as §3
# H. influenzae A20193 = experiment: In vitro activity against fastidious bacteria; format: cell-based; conditions: Haemophilus influenzae, A20193
# Source text: as §3
# N. meningitidis A20048 = experiment: In vitro activity against fastidious bacteria; format: cell-based; conditions: Neisseria meningitidis, A20048
# Source text: as §3
# H. influenzae A9729 = experiment: In vitro activity against fastidious bacteria; format: cell-based; conditions: Haemophilus influenzae, A9729
# Source text: as §3
# N. meningitidis A21497 = experiment: In vitro activity against fastidious bacteria; format: cell-based; conditions: Neisseria meningitidis, A21497
# Source text: as §3
# S. pyogenes A15040 = experiment: In vitro activity against fastidious bacteria; format: cell-based; conditions: Streptococcus pyogenes, A15040
# Source text: as §3
# H. influenzae A22483 = experiment: In vitro activity against fastidious bacteria; format: cell-based; conditions: Haemophilus influenzae, A22483
# Source text: as §3
# N. gonorrheae A15112 = experiment: In vitro activity against fastidious bacteria; format: cell-based
# Source text: as §3
# S. pyogenes Dick = experiment: In vitro activity against fastidious bacteria; format: cell-based; conditions: Streptococcus pyogenes
# Source text: as §3
# H. influenzae A9833 = experiment: In vitro activity against fastidious bacteria; format: cell-based; conditions: Haemophilus influenzae, A9833
# Source text: as §3
# N. gonorrheae A20154 = experiment: In vitro activity against fastidious bacteria; format: cell-based
# Source text: as §3
# S. pyogenes A9604 = experiment: In vitro activity against fastidious bacteria; format: cell-based; conditions: Streptococcus pyogenes, A9604
# Source text: as §3
# S. pyogenes A20065 = experiment: In vitro activity against fastidious bacteria; format: cell-based; conditions: Streptococcus pyogenes, A20065
# Source text: as §3
# S. pneumoniae Type II = experiment: In vitro activity against fastidious bacteria; format: cell-based; conditions: Streptococcus pneumoniae
# Source text: as §3
# S. pyogenes s-23 = experiment: In vitro activity against fastidious bacteria; format: cell-based; conditions: Streptococcus pyogenes, S23
# Source text: as §3
# N. gonorrheae A20143 = experiment: In vitro activity against fastidious bacteria; format: cell-based
# Source text: as §3
# N. meningitidis A21495 = experiment: In vitro activity against fastidious bacteria; format: cell-based; conditions: Neisseria meningitidis, A21495
# Source text: as §3
# S. pneumoniae A15069 = experiment: In vitro activity against fastidious bacteria; format: cell-based; conditions: Streptococcus pneumoniae, A15069
# Source text: as §3
# S. pyogenes A20201 = experiment: In vitro activity against fastidious bacteria; format: cell-based; conditions: Streptococcus pyogenes, A20201
# Source text: as §3
# S. pneumoniae A20759 = experiment: In vitro activity against fastidious bacteria; format: cell-based; conditions: Streptococcus pneumoniae, A20759
# Source text: as §3
compound,measurement,setting,value
N[C@@H](C(=O)N[C@@H]1C(=O)N2C(C(=O)O)=C(Cl)CS[C@H]12)c1ccccc1 [cefaclor],PD50 (protective dose),E. coli Juhl [1]; im,0.8
same,PD50 (protective dose),E. coli Juhl [1]; po,1.1
same,PD50 (protective dose),S. aureus Smith [2],0.20
same,MIC,S. aureus A9534,0.8 µg/mL
same,MIC,E. coli Juhl [3],0.8 µg/mL
same,MIC,S. aureus Terajima,0.4 µg/mL
same,MIC,S. aureus BX-1633-2,6.3 µg/mL
same,MIC,K. pneumoniae D11,0.8 µg/mL
same,MIC,K. pneumoniae A20346,6.3 µg/mL
same,MIC,E. coli A9660,0.8 µg/mL
same,MIC,S. aureus A15092,6.3 µg/mL
same,MIC,S. aureus A9602,3.1 µg/mL
same,MIC,S. aureus Smith [4],0.8 µg/mL
same,MIC,E coli RGN-823,25 µg/mL
same,MIC,S. aureus A9497,0.8 µg/mL
same,MIC,S. aureus No. 193,6.3 µg/mL
same,MIC,E. coli A20341-1,6.3 µg/mL
same,MIC,S. aureus Russell,3.1 µg/mL
same,MIC,E. coli A15148,25 µg/mL
same,dose excreted at 2 h,Mouse urinary recovery; 0-2 hr,60%
same,dose excreted at 4 h,Mouse urinary recovery; 2-4 hr,6.7%
same,dose excreted at 6 h,Mouse urinary recovery; 4-6 hr,0.3%
same,dose excreted at 24 h,"Mouse urinary recovery; 6-24 hr, read-out: Mouse urinary recovery 6-24 hr",1.5%
same,dose excreted at 24 h,"Mouse urinary recovery; total, read-out: Mouse urinary recovery Total",69%
same,MIC,N. gonorrheae A20155,0.8 µg/mL
same,MIC,S. pneumoniae A9585,0.8 µg/mL
same,MIC,H. influenzae A20177,0.8 µg/mL
same,MIC,N. meningitidis A21487,0.8 µg/mL
same,MIC,H. influenzae A21523,0.8 µg/mL
same,MIC,H. influenzae A22482,0.8 µg/mL
same,MIC,H. influenzae A20193,0.8 µg/mL
same,MIC,N. meningitidis A20048,0.8 µg/mL
same,MIC,H. influenzae A9729,0.8 µg/mL
same,MIC,N. meningitidis A21497,0.8 µg/mL
same,MIC,S. pyogenes A15040,0.2 µg/mL
same,MIC,H. influenzae A22483,0.8 µg/mL
same,MIC,N. gonorrheae A15112,0.8 µg/mL
same,MIC,S. pyogenes Dick,0.2 µg/mL
same,MIC,H. influenzae A9833,0.8 µg/mL
same,MIC,N. gonorrheae A20154,0.8 µg/mL
same,MIC,S. pyogenes A9604,0.2 µg/mL
same,MIC,S. pyogenes A20065,0.2 µg/mL
same,MIC,S. pneumoniae Type II,0.8 µg/mL
same,MIC,S. pyogenes s-23,0.2 µg/mL
same,MIC,N. gonorrheae A20143,0.8 µg/mL
same,MIC,N. meningitidis A21495,0.8 µg/mL
same,MIC,S. pneumoniae A15069,3.1 µg/mL
same,MIC,S. pyogenes A20201,0.2 µg/mL
same,MIC,S. pneumoniae A20759,3.1 µg/mL
